Source: US12064641B2, “Bactericidal methods and compositions” (Pulsethera, Inc., priority 2019, dated 2024)
Read-outs that look alike come from different tables or passages of the source.

Columns and labels:
Salmonella enterica = conditions: ns-410 nm combined with H2O2 22 mM
Description: (§1) CFU experiments to test the potential synergy between photoinactivation of catalase and H2O2: Overnight-cultured bacteria was centrifuged, the supernatant was discarded, and the pellet was resuspended with the same amount of PBS. The laser source used in the study is nanosecond (ns) pulsed OPO laser purchased from OPOTEK Inc, model number as Opolette HE355 LD, having the following key specifications: wavelength range, 410-2400 nm; pulse repetition rate, 20 Hz; maximum pulse energy at 460 nm, 8 mJ; pulse duration, 5 nanosecond; spectral linewidth, 4-6 cm-1; and pulse-to-pulse stability, <5%. For each bacterial strain there were four groups: untreated one, ns-410 nm-treated group, H2O2 (22 or 44 mM)-treated group, ns-410 nm plus H2O2 (22 or 44 mM)-treated group. Dose for ns-410 nm exposure was 15 J/cm^2. H2O2 was incubated with bacteria for 30 min at 37° C. with the shaking speed of 200 rpm. After incubation, bacterial burden from each group was serial diluted, inoculated onto TSA plates, then counted by enumeration of these plates.

[1] = tested on: stationary-phase MRSA USA300
Description: as §1

[2] = tested on: stationary-phase Pseudomonas aeruginosa
Description: as §1

Candida albicans SC5314 = tested on: Candida albicans SC5314
Protocol: CFU test to quantify the treatment efficacy: Quantification of antifungal treatment schemes were achieved as following: overnight cultured fungal specimen was washed by sterile PBS. And log-phase fungal pathogens were prepared by dilution into fresh YPD broth at a ratio of 1:50 and cultured for another 2-3 hours at 30° C. with the shaking speed of 200 rpm. After that, the fungal concentration was adjusted to be around 1×10^8 cells/ml by centrifuging or further dilution with PBS. 10 μl of the above fungal solution was exposed to 410 nm for 5 min (150 mW/cm^2). After that, the exposed sample was collected into 990 μl of sterile PBS, then supplemented with treatment agents. Later, CFU of fungal cells was enumerated by serial dilution and cultured in YPD agar plates for 48 hours.

CASC5314 = conditions: 410 nm plus low-concentration H2O2; log-phase or stationary-phase
Protocol: (§2) PrestoBlue viability assay: First log-phase fungal pathogens were prepared by diluting overnight-cultured fungal pathogens into fresh YPD broth at a ratio of 1:50 and cultured for another 2-3 hours at 30 C with the shaking speed of 200 rpm. After that, the fungal concentration was adjusted to be around 1×10^8 cells/ml by centrifuging or further dilution with PBS. 10 μl of the above fungal solution was exposed to 410 nm for 5 min (150 mW/cm^2). After that, the exposed sample was collected into 990 μl of sterile PBS, then supplemented with treatment agents. Aliquots were made from the above sample into a 96-well plate, with each well containing 100 μl. Then 100 μl sterile YPD broth and 23 μl of PrestoBlue were added into the same well. Fluorescence signal at 590 nm from each well was recorded in a time-course (up to 18 hours with the interval of 30 min) manner at an excitation of 560 nm. For each strain, in order to know the exact number of fungal pathogens in each well, the corresponding fluorescence signals were recorded from fungal pathogens with known numbers, however no external treatments.

clinical fungal isolates = conditions: 410 nm plus H2O2; more than twenty different clinical fungal isolates
Protocol: as §2

C. auris strains = test: PrestoBlue viability assay, amp B; type: cell-based, Candida auris
MRSA USA300 = test: Spread agar plates, photoinactivation of catalase with silver cation; type: cell-based, methicillin-resistant Staphylococcus aureus
E. coli BW25113 [3] = test: CFU, photoinactivation of catalase with silver cation; type: cell-based, Escherichia coli; conditions: 30 and 60 minutes
E. coli BW25113 [4] = test: CFU test of synergy between photoinactivation of catalase and ROS-generating antibiotics; type: cell-based, Escherichia coli; conditions: ns-410 nm (15 J/cm2) plus tobramycin 2 μg/ml, 4-hour incubation
Protocol: (§3) Then prior to any treatments, the above solution was incubated with antibiotics (10 μg/ml) for 1 hour. For each bacterial strain, four groups were tested: untreated one, ns-410 nm-treated group, antibiotic (2 μg/ml)-treated group, ns-410 nm plus antibiotic (2 μg/ml)-treated group. Dose for ns-410 nm exposure was 15 J/cm2.

[5] = tested on: Enterococcus faecalis NR-31970; test: CFU test of synergy between photoinactivation of catalase and ROS-generating antibiotics (catalase-negative control); type: cell-based; conditions: ns-410 nm plus tobramycin 2 μg/ml, 4-hour incubation; catalase-negative strain
Protocol: as §3

[6] = H2O2 22 mM after photoinactivation of catalase (15 J/cm2)

`OO` [H2O2, hydrogen peroxide] was tested, and the enhanced killing effect (Salmonella enterica) was “around five”, the “killing efficacy, ns-410 nm plus H2O2 compared to CW-410 nm plus H2O2” value ([1]; FIG. 6) was “significantly more effective” and the “reduction of bacterial burden” value [1, 6] was at least 3 log 10 reduction. The “reduction of bacterial burden” value ([1]; ns-410 nm (15 J/cm2) in combination with H2O2 22 mM) was “approximately four”, the “reduction of bacterial burden” value ([1]; ns-430 nm combined with H2O2 22 mM) was “around 99%” and the “reduction of bacterial burden” value ([1]; ns-450 or ns-460 nm combined with H2O2 22 mM) was “around 90%”. The “reduction of bacterial burden” value ([1]; ns-470 nm combined with H2O2 22 mM) was “around 50%”, the antimicrobial effect ([1]; ns-480 nm combined with H2O2 22 mM) was “barely exerts an antimicrobial effect” and the “killing efficacy, ns-410 nm plus H2O2 compared to CW-410 nm plus H2O2” value ([2]; FIG. 6) was “significantly more effective”. The “reduction of bacterial burden” value [2, 6] was at least 3 log 10 reduction, the eradication ([2]; H2O2 22 mM combined with 410 nm exposure (15 J/cm2)) was “total eradication” and the “antimicrobial effect (CFU ml-1)” value ([2]; H2O2 alone, 22 mM) was “didn't exert any significant antimicrobial effect”. The “enhancement of the function of H2O2 after photoinactivation of catalase” value (Candida albicans SC5314; 410 nm exposure then H2O2, FIG. 11) was “more than five”, the “killing effect (CFU ml-1)” value (Candida albicans SC5314; H2O2 alone, 44 mM (0.15%), 1.5-hour incubation, stationary-phase) was “doesn't exert significant killing effect” and the “eradication (time-killing, CFU)” value (Candida albicans SC5314; low-concentration H2O2 after 410 nm exposure, FIG. 11) was “eradication was achieved”. The eradication (Candida albicans SC5314; ns-410, ns-420 or ns-430 combined with H2O2 44 mM) was “total eradication”, the “reduction of fungal burden” value (Candida albicans SC5314; ns-450 or ns-480 nm combined with H2O2 44 mM) was “reduced a similar amount of fungal burden as H2O2-alone” and the reduction of burden (Candida albicans SC5314; ns-light (24 J/cm^2) in combination with H2O2 44 mM) was “around four”. For the same compound, the “effect of photoinactivation of catalase on killing by H2O2 (PrestoBlue fluorescence)” value (CASC5314) was “always boosts the killing effect” and the “killing by synergistic therapy (PrestoBlue)” value (clinical fungal isolates) was “significant killing was consistently found”.
In the case of `C[C@@H]1[C@H](O)[C@@H](C)/C=C/C=C/C=C/C=C/C=C/C=C/C=C/[C@H](O[C@@H]2O[C@H](C)[C@@H](O)[C@H](N)[C@@H]2O)C[C@@H]2O[C@](O)(C[C@@H](O)C[C@@H](O)[C@H](O)CC[C@@H](O)C[C@@H](O)CC(=O)O[C@H]1C)C[C@H](O)[C@H]2C(=O)O` [amp B, amphotericin B], the “eradication (PrestoBlue fluorescence)” value (C. auris strains; 410 nm plus amp B, same result with 410 nm without amp B, ten strains) is reported as “total eradication” and the “susceptibility (PrestoBlue fluorescence)” value (C. auris strains; amp B alone, without photoinactivation of catalase) is reported as “some C. auris strains were resilient”.
In the case of `[Ag+]` [silver cation], the MRSA eliminated (MRSA USA300; ns-410 nm combined with 10 μM silver cation, one hour after treatment) is reported as “about 90%”, the antimicrobial effect (MRSA USA300; silver cation alone) is reported as “does not exert any significant antimicrobial effect” and the “killing effect (CFU ml-1)” value (E. coli BW25113 [3]; 0.5 μM Ag+ alone) is reported as “doesn't exert any significant killing effect”. For the same compound, the “reduction of bacterial burden” value (E. coli BW25113 [3]; CW-410 (22 J/cm^2) combined with 0.5 μM Ag+) was “didn't significantly reduce bacterial burden” and the “reduction of bacterial burden” value (E. coli BW25113 [3]; ns-410 (22 J/cm^2) in combination with 0.5 μM Ag+) was “around 99%”.
`NC[C@H]1O[C@H](O[C@H]2[C@H](O)[C@@H](O[C@H]3O[C@H](CO)[C@@H](O)[C@H](N)[C@H]3O)[C@H](N)C[C@@H]2N)[C@H](N)C[C@@H]1O` [tobramycin, Tobramycin] was tested, and the “enhancement of killing in combination-treated group” value (E. coli BW25113 [4]) was “More than 100 times” and the “enhanced killing effect in combination-treated group” value [5] was “did not produce any enhanced killing effect”.
